In patent publication US12435044B2, “Pyridazinone herbicides and pyridazinone intermediates used to prepare a herbicide” (FMC Corporation, priority 2018, dated 2025):

Key:
Assay type in all cases: in vivo
[1] = system: corn (ZEAMD; Zea mays, cv. ‘Pioneer 1184’); assay: Test of Tables L1 to L3, postemergence, mixtures of Cpd. No. 20 with benoxacor, isoxadifen-ethyl, or cloquintocet-mexyl; conditions: approx. 14 d, Cloquintocet-mexyl alone 31 g a.i./ha
Source text: (§1) This test evaluated the effect of mixtures of Cpd. No. 20 with benoxacor, isoxadifen-ethyl, or cloquintocet-mexyl on several plant species. Seeds of plant species selected from corn (ZEAMD; Zea mays, cv. ‘Pioneer 1184’), soybean (GLXMA; Glycine max, cv. Pioneer 35T58), winter wheat (TRZAW; Triticum aetivum, cv. Arezzo), rice (ORYSS; Oryza sativa, cv. M202), and giant foxtail (SETFA; Setaria faberi) were planted in pots containing Redi-Earth® planting medium (Scotts Company, 14111 Scottslawn Road, Marysville, Ohio 43041) comprising spaghnum peat moss, vermiculite, wetting agent and starter nutrients and treated postemergence using test chemicals formulated in a non-phytotoxic solvent mixture which included a surfactant. Plants ranged in height from 7 to 10 cm and were in the one- to two-leaf stage for the postemergence treatment. Treated plants and untreated controls were maintained in a greenhouse for approximately 14 d, after which time all treated plants were compared to untreated controls and visually evaluated for injury. Plant response ratings, summarized in Tables L1 to L3, are based on a 0 to 100 scale where 0 is no effect and 100 is complete control. A dash (-) response means no test result. Test results are presented as a mean of 4 reps.

[2] = system: giant foxtail (SETFA; Setaria faberi); assay: as above; conditions: approx. 14 d, Cloquintocet-mexyl alone 31 g a.i./ha
Source text: as §1

[3] = system: rice (ORYSS; Oryza sativa, cv. M202); assay: as above; conditions: approx. 14 d, Cloquintocet-mexyl alone 31 g a.i./ha
Source text: as §1

[4] = system: soybean (GLXMA; Glycine max, cv. Pioneer 35T58); assay: as above; conditions: approx. 14 d, Cloquintocet-mexyl alone 31 g a.i./ha
Source text: as §1

[5] = system: winter wheat (TRZAW; Triticum aetivum, cv. Arezzo); assay: as above; conditions: approx. 14 d, Cloquintocet-mexyl alone 31 g a.i./ha
Source text: as §1

[6] = system: corn (ZEAMD; Zea mays, cv. ‘Pioneer 1184’); assay: Test M postemergence, mixtures of Cpd. No. 20 with isoxadifen-ethyl, cloquintocet-mexyl or Mefenpyr-diethyl; conditions: approx. 14 d, second component alone 31 g a.i./ha
Source text: as §1, with “with” for “with benoxacor,”, “or cloquintocet-mexyl, or Mefenpyr-diethyl” for “or cloquintocet-mexyl”, “Arezzo), winter barley (HORVW; Hordeum vulgare, cv. Boone),” for “Arezzo),”, “Tables M1” for “Tables L1”, “to M3,” for “to L3,”, “of 3” for “of 4”

[7] = system: giant foxtail (SETFA; Setaria faberi); assay: as above; conditions: approx. 14 d, second component alone 31 g a.i./ha
Source text: as §1, with “with” for “with benoxacor,”, “or cloquintocet-mexyl, or Mefenpyr-diethyl” for “or cloquintocet-mexyl”, “Arezzo), winter barley (HORVW; Hordeum vulgare, cv. Boone),” for “Arezzo),”, “Tables M1” for “Tables L1”, “to M3,” for “to L3,”, “of 3” for “of 4”

[8] = system: rice (ORYSS; Oryza sativa, cv. M202); assay: as above; conditions: approx. 14 d, second component alone 31 g a.i./ha
Source text: as §1, with “with” for “with benoxacor,”, “or cloquintocet-mexyl, or Mefenpyr-diethyl” for “or cloquintocet-mexyl”, “Arezzo), winter barley (HORVW; Hordeum vulgare, cv. Boone),” for “Arezzo),”, “Tables M1” for “Tables L1”, “to M3,” for “to L3,”, “of 3” for “of 4”

[9] = system: soybean (GLXMA; Glycine max, cv. Pioneer 35T58); assay: as above; conditions: approx. 14 d, second component alone 31 g a.i./ha
Source text: as §1, with “with” for “with benoxacor,”, “or cloquintocet-mexyl, or Mefenpyr-diethyl” for “or cloquintocet-mexyl”, “Arezzo), winter barley (HORVW; Hordeum vulgare, cv. Boone),” for “Arezzo),”, “Tables M1” for “Tables L1”, “to M3,” for “to L3,”, “of 3” for “of 4”

[10] = system: winter barley (HORVW; Hordeum vulgare, cv. Boone); assay: as above; conditions: approx. 14 d, second component alone 31 g a.i./ha
Source text: as §1, with “with” for “with benoxacor,”, “or cloquintocet-mexyl, or Mefenpyr-diethyl” for “or cloquintocet-mexyl”, “Arezzo), winter barley (HORVW; Hordeum vulgare, cv. Boone),” for “Arezzo),”, “Tables M1” for “Tables L1”, “to M3,” for “to L3,”, “of 3” for “of 4”

[11] = system: winter wheat (TRZAW; Triticum aetivum, cv. Arezzo); assay: as above; conditions: approx. 14 d, second component alone 31 g a.i./ha
Source text: as §1, with “with” for “with benoxacor,”, “or cloquintocet-mexyl, or Mefenpyr-diethyl” for “or cloquintocet-mexyl”, “Arezzo), winter barley (HORVW; Hordeum vulgare, cv. Boone),” for “Arezzo),”, “Tables M1” for “Tables L1”, “to M3,” for “to L3,”, “of 3” for “of 4”

CCCCCC(C)OC(=O)COc1ccc(Cl)c2cccnc12 (centres unmarked) [Cloquintocet-mexyl, cloquintocet-mexyl, reference compound]
0: Plant response rating (0 to 100 scale) ZEAMD [1] | Plant response rating (0 to 100 scale) SETFA [2] | Plant response rating (0 to 100 scale) ORYSS [3] | Plant response rating (0 to 100 scale) GLXMA [4] | Plant response rating (0 to 100 scale) TRZAW [5] | Plant response rating (0 to 100 scale) ZEAMD [6] | Plant response rating (0 to 100 scale) SETFA [7] | Plant response rating (0 to 100 scale) ORYSS [8] | Plant response rating (0 to 100 scale) GLXMA [9] | Plant response rating (0 to 100 scale) HORVW [10] | Plant response rating (0 to 100 scale) TRZAW [11]

CCOC(=O)C1=NN(c2ccc(Cl)cc2Cl)C(C)(C(=O)OCC)C1 (centres unmarked) [Mefenpyr-diethyl, reference compound]
0: Plant response rating (0 to 100 scale) ZEAMD [6] | Plant response rating (0 to 100 scale) SETFA [7] | Plant response rating (0 to 100 scale) ORYSS [8] | Plant response rating (0 to 100 scale) GLXMA [9] | Plant response rating (0 to 100 scale) HORVW [10] | Plant response rating (0 to 100 scale) TRZAW [11]
